Patent US20250074908A1, “SALT OF ROCK INHIBITOR, CRYSTAL FORM OF SALT, COMPOSITION, AND PHARMACEUTICAL USE” (WUHAN CREATERNA SCIENCE AND TECHNOLOGY CO., LTD., priority 2022, published 2025)
≈ marks a conversion by molar mass, not a printed value.

How the values were obtained:
[1] = Pharmacokinetic study in rats; type: in vivo, SD rats
Procedure: Compound I, 2-hydroxyethanesulfonate of compound I, ethanesulfonate (crystal form I) of compound I, tartrate of compound I, and sulfate of compound I were each accurately weighed, and the required volume of vehicle was added. The mixture was stirred for 5 min, then sonicated below 25° C. until no large particles were visible to the naked eye, and further stirred for 30 min until a homogeneous suspension was obtained. The suspension was then used for administration.
Male SPF-grade SD rats (Beijing Vital River Laboratory Animal Technology Co., Ltd.) were given compound I, the 2-hydroxyethanesulfonate of compound I, the ethanesulfonate of compound I (crystal form I), the tartrate of compound I, and the sulfate of compound I by single intragastric administration after an acclimation period (with free access to water and food). Blood was collected from the orbital venous plexus of the rats at 0.167 h, 0.5 h, 1 h, 2 h, 3 h, 4 h, 6 h, 9 h, 12 h, and 24 h after administration. Each blood sample was centrifuged at 3500×g for 10 min at 4° C. The supernatant was then collected, and the concentration of compound I in the plasma was measured by LC-MS/MS (AB Sciex TRIPLE QUAD 3500). The data were analyzed using a non-compartmental model in WinNonlin (version 5.2.1 Pharsight, Mountain View, CA) to obtain PK parameters.

[2] = Hygroscopicity test (dynamic vapor sorption, DVS); type: physicochemical; conditions: for weight gain (DVS): 25° C.; for hygroscopicity: DVS
Procedure: The instrument used for dynamic vapor sorption analysis was Vsorp (ProUmid GmbH & Co. KG, Germany). Each sample was subjected to vapor sorption/desorption tests using the Vsorp vapor sorption analyzer (ProUmid GmbH & Co. KG, Germany). The sample was placed in a tared sample tray, and the change in the sample mass with humidity (0-90% RH) at 25° C. was recorded.

[3] = Solid-state stability test (HPLC purity and XRPD), Table 13-3; type: physicochemical
Procedure: B) The HPLC method used for the stability test was as follows:
The samples after being placed for 0 days, 1 week, 2 weeks and 30 days were taken and each dissolved in a diluent to prepare a solution at about 1.0 mg/mL, which was then tested for chemical stability by HPLC analysis using Agilent HPLC 1260 series. The solid samples after being placed for 2 weeks and 30 days were tested for physical stability by XRPD analysis.

[4] = Solubility in biologically relevant media at 37° C. (free base crystal form I, crystal form III of maleate); type: physicochemical; conditions: for pH 24 h: filtrate
Procedure: (§1) A) The HPLC method used for the solubility test was as follows:
15 mg of each sample was weighed and dispersed in 3.0 mL of biologically relevant medium. The dispersion was shaken on a shaker at a rotation speed of 800 rpm at 37° C. 1 mL of the dispersion was taken at 0.5 h, 2 h, and 24 h, and filtered. The filtrate was tested for solubility by Agilent HPLC 1260 series and for pH value by a pH meter. The filter cake was characterized for the crystal form by XRPD.

[5] = Chemical stability on storage up to 3 months (HPLC purity), Table 13-4; type: physicochemical; conditions: for stability in chemical properties: 40° C./75% humidity (sealed and protected from light); for Purity (%), 230 nm, Day 13: 40° C./75% humidity, sealed and protected from light
Procedure: B) The HPLC method used for the stability study was as follows:
The vials were sealed with tin foil and then separately placed under the conditions of 40° C. temperature/75% humidity or 25° C. temperature/60% humidity for about 3 months. The samples after being placed for 0 months, 2 weeks, 1 month and 3 months were taken and each dissolved in a diluent to prepare a solution at about 1.0 mg/mL, which was then tested for chemical stability by HPLC analysis using Shimadzu LC-20ADxr.

[6] = Solubility in biological media and purified water at 37° C. (tartrate, ethanesulfonate, 2-hydroxyethanesulfonate, sulfate); type: physicochemical
Procedure: as §1
The centrifuge tubes were shaken on a constant temperature incubator shaker (at a temperature of 37° C., with a shaking frequency of 100 times/min).

[7] = 60° C./sealed, 60° C./sealed/N2, 40° C./75% RH (open), RT/sealed for 2 weeks
[8] = filter cake after 24 h in FaSSIF
[9] = filter cake after 24 h in FeSSIF
[10] = simulated gastric fluid, thermodynamic from solid, SGF, 37° C.
[11] = male SD rats, single intragastric administration, 10 mg/kg (calculated as compound I), 10 mL/kg, suspension in 0.5% CMC-Na aqueous solution, plasma concentration of compound I

Row | XRPD spectra before and after the DVS test [2] | weight gain (DVS) ([2]; 0.0% RH to 80% RH) | weight gain (DVS) ([2]; 0.0% RH to 90% RH) | hygroscopicity [2] | Purity (%), 230 nm, 40° C./75% RH (open) Week 1 ([3]; 40° C./75% RH (open)) | Purity (%), 230 nm, 40° C./75% RH (open) Week 2 ([3]; 40° C./75% RH (open)) | stability in physical and chemical properties [3, 7] | Purity (%), 230 nm, 60° C./sealed Week 1 ([3]; 60° C./sealed) | Purity (%), 230 nm, 60° C./sealed Week 2 ([3]; 60° C./sealed) | Purity (%), 230 nm, 60° C./sealed/N2 Week 1 [3] | Purity (%), 230 nm, 60° C./sealed/N2 Week 2 [3] | Purity (%), 230 nm, Day 0 [3] | Purity (%), 230 nm, RT/sealed Week 2 [3] | XRPD (24 h) [4, 8] | XRPD (24 h) [4, 9] | XRPD (24 h) ([4]; filter cake after 24 h in SGF) | pH 24 h ([4]; FaSSIF) | pH 24 h ([4]; FeSSIF) | pH 24 h ([4]; SGF) | stability in chemical properties [5] | SMILES | also measured
1 | – | – | – | – | – | – | – | – | – | – | – | – | – | – | – | – | – | – | – | – | O=S(=O)(O)O [Sulfate] | AUClast ([1]; rat, in vivo, po, 10 mg/kg): 13429 ng·h/mL
2 | crystal form remained unchanged | 0.29% | 0.37% | slightly hygroscopic | 98.00% | 97.92% | slight degradation | 97.96% | 97.85% | 97.95% | 97.97% | 98.11% | 98.02% | underwent a crystal form transformation | underwent a crystal form transformation | underwent a crystal form transformation | 5.33 | 4.90 | 1.29 | – | Cn1c(C(=O)N2CC(F)(F)C2)cc2c1CN(c1ncc(F)c(Nc3ccc(-c4cn[nH]c4)cc3)n1)CC2.O=C(O)/C=C\C(=O)O [Crystal form III of maleate] | Solubility 0.5 h ([4]; FaSSIF, 37° C.): 0.14 µg/mL; Solubility 24 h ([4]; FaSSIF, 37° C.): 1.11 µg/mL; Solubility 0.5 h ([4]; FeSSIF, 37° C.): 0.74 µg/mL; Solubility 2 h ([4]; FeSSIF, 37° C.): 2.47 µg/mL; Solubility 24 h ([4]; FeSSIF, 37° C.): 3.90 µg/mL; Solubility 2 h ([4]; SGF, 37° C.): 2.18 µg/mL; Solubility 24 h ([4]; SGF, 37° C.): 6.45 µg/mL
3 | – | – | – | – | – | – | – | – | – | – | – | – | – | – | – | – | – | – | – | substantially stable | Cn1c(C(=O)N2CC(F)(F)C2)cc2c1CN(c1ncc(F)c(Nc3ccc(-c4cn[nH]c4)cc3)n1)CC2.O=S(=O)(O)CCO | Purity (%), 230 nm, Day 13 [5]: 98.7%; Purity (%), 230 nm, Day 0 [5]: 98.76%
4 | crystal form remained unchanged | 0.30% | 0.46% | slightly hygroscopic | 97.82% | 97.88% | substantially stable | 97.82% | 97.85% | 97.83% | 97.84% | 97.90% | 97.93% | remained unchanged | remained unchanged | underwent a crystal form transformation | 6.53 | 5.02 | 1.30 | – | Cn1c(C(=O)N2CC(F)(F)C2)cc2c1CN(c1ncc(F)c(Nc3ccc(-c4cn[nH]c4)cc3)n1)CC2 [Free base crystal form I] | solubility ([4]; fassgf or other biorelevant, thermodynamic from solid, SGF, FaSSIF and FeSSIF, 37° C., read-out: solubility in the three biologically relevant media): < 50 µg/mL; solubility at 24 h ([4]; pH 1.3, simulated gastric fluid, thermodynamic from solid, SGF, 37° C.): 8.57 µg/mL (≈ 16.9 µM); solubility at 24 h ([4]; pH 5.02, thermodynamic from solid, FeSSIF, 37° C.): 3.35 µg/mL (≈ 6.59 µM); solubility at 24 h ([4]; pH 6.53, thermodynamic from solid, FaSSIF, 37° C.): 0.39 µg/mL (≈ 0.767 µM); solubility at 0.5 h [4, 10]: 11.5 µg/mL (≈ 22.6 µM); solubility at 2 h [4, 10]: 6.69 µg/mL (≈ 13.2 µM); solubility at 0.5 h ([4]; thermodynamic from solid, FaSSIF, 37° C.): 0.29 µg/mL (≈ 0.57 µM); solubility at 2 h ([4]; thermodynamic from solid, FeSSIF, 37° C.): 1.79 µg/mL (≈ 3.52 µM)
5 | – | – | – | – | – | – | – | – | – | – | – | – | – | – | – | – | – | – | – | – | O=S(=O)(O)CCO [Sample 2-Hydroxyethanesulfonate, 2-Hydroxyethanesulfonate] | AUClast [1, 11]: 9449 ng·h/mL; Cmax [1, 11]: 827 ng/mL
6 | crystal form remained unchanged | about 0.3% | – | slightly hygroscopic | – | 99.49% | – | – | 99.50% | – | – | 99.48% | – | – | – | – | – | – | – | substantially stable | CCS(=O)(=O)O.Cn1c(C(=O)N2CC(F)(F)C2)cc2c1CN(c1ncc(F)c(Nc3ccc(-c4cn[nH]c4)cc3)n1)CC2 [Crystal form I of ethanesulfonate] | solubility in SGF in the first 4 h [6]: around 100 μg/mL; Purity (%), 230 nm, Day 13 [5]: 98.69%; Purity (%), 230 nm, Day 0 [5]: 98.68%; stability in physical and chemical properties ([3]; 40° C./75% RH (open) and 60° C./sealed): substantially stable; Purity (%), 230 nm, 40° C./75% RH (open) Day 30 ([3]; 40° C./75% RH (open), Day 30): 99.48%; Purity (%), 230 nm, 60° C./sealed Day 30 ([3]; 60° C./sealed, Day 30): 99.49%
